Assay [1] addresses T1, papain (Carica papaya, UniProt P00784).
T1 construct: commercial purified papain (Sigma-Aldrich)
T1 sequence (P00784 134-345): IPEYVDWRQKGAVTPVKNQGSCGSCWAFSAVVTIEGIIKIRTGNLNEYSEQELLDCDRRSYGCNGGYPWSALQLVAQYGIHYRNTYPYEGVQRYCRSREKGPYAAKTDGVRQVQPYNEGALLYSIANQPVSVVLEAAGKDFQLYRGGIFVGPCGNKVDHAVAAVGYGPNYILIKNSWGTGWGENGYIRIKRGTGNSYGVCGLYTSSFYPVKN
Put plainly: chromogenic protease assay, Lineweaver-Burk. The note with it: pH 6.8, 1 mM glutathione, 37 °C, 0.1-5 mM BAPNA. In kind it is biochemical.

Assay [2] addresses papain (UniProt P00784). As to the kind of experiment: enzyme inhibition kinetics (Lineweaver-Burk).

pKi: −log10 of the molar value. Where a name gives a salt, the structure may show the parent alone.

With `N=C(N)NCCC[C@H](NC(=O)c1ccccc1)C(=O)Nc1ccc([N+](=O)[O-])cc1` [BAPNA, Nα-Benzoyl-L-arginine 4-nitroanilide hydrochloride], the “chromogenic protease assay, Lineweaver-Burk” value at papain [1] is listed as “classical protease inhibition assays on purified papain using the chromogenic substrate BAPNA”.

For “C14-inhibiting protein-1 (Cip1), wild type (natural protein)”, in the assay with papain [2], the pKi is 8.40.

A word on the pKi: it is the negative decadic logarithm of the Ki, by convention in mol/L.

(Values after publication PMC5014320, “Screen of Non-annotated Small Secreted Proteins of Pseudomonas syringae Reveals a Virulence Factor That Inhibits Tomato Immune Proteases” (PLoS Pathogens, 2016).)
